# US8895599B2, “Lipoprotein lipase-activating compositions comprising benzene derivates” (Otsuka Pharmaceutical Factory, Inc., priority 2008, dated 2014)
# Assays:
# LPL = experiment: Test for LPL activity-increasing effect in normal rats (skeletal muscle LPL activity); assay type: in vivo; settings: every day for 1 week, SD rats, soleus muscle, 4 h after administration
# Description: Test for LPL Activity-Increasing Effect in Normal Rats
# 6-week-old SD rats (purchased from Charles River Japan) were used as subjects. The rats were divided into groups according to body weight at the age of 5 weeks. The rats in each test group were orally administered with a 5% gum arabic suspension in an amount of 5 ml/kg of body weight, the suspension containing the test compound of the invention in such an amount that the dose of the compound of the invention became 30 mg/kg of body weight in one group and 100 mg/kg of body weight in another group. The rats in a control group were orally administered with a 5% gum arabic suspension (not containing the test compound of the invention) in an amount of 5 ml/kg of body weight. Each sample suspension was orally administered every day at a specific time of day for 1 week starting when the rats reached the age of 6 weeks.
# Four hours after the administration of the sample suspension, skeletal muscle tissues of the rats were collected, then freeze-clamped and stored under liquid nitrogen. LPL activity in the skeletal muscle tissues was measured by the following method.
# The soleus muscle was homogenized in a chilled solution of 0.05 mol/L NH4OH—NH4Cl buffer (pH 8.5) containing 0.5 U/mL heparin at 1 mL/100 mg of tissue wet weight. After standing on ice for 60 min with vigorous mixing at intervals of 15 min, the homogenate was centrifuged at 3000 rpm and 4° C. for 10 min and the supernatant was separated.
# The substrate solution was prepared by mixing 2 μCi of glycerol tri[1-^14C]oleate, 0.133 g of unlabeled triolein, 0.9 mL of 1% Triton X-100, and 0.9 mL of 4% bovine serum albumin. in 0.2 mol/L Tris-HCl buffer (pH 8.6) and 10.2 mL of 0.2 mol/L Tris-HCl buffer (pH 8.6). The mixture was emulsified by sonication on ice for 3 min.
# In a glass test tube, 0.1 mL of the tissue extract, 0.05 mL of heat-inactivated rat serum and 0.15 mL of 4% bovine serum albumin in 0.2 mol/L Tris-HCl buffer (pH 7.4) were mixed. Enzyme reaction was started by adding 0.2 mL of the substrate solution and was carried out for 30 min. at 37° C.
# The reaction was stopped by addition of 2 mL of 1.5 mol/L H2SO4/2-propanol (1:40, v/v), and 1 mL of distilled water and 3 mL of hexane were added into the test tube. After vigorously shaking for 10 min. at room temperature, the test tube was centrifuged for 10 min. at 3000 rpm.
# The upper layer (3.5 mL) was collected in a new test tube and mixed with 1 mL of 0.1 mol/L KOH.
# The test tube was vigorously shaken for 10 min. at room temperature and then centrifuged for 10 min. at 3000 rpm.
# After removing the upper layer, 1 mL of the lower layer (water phase) was transferred into a vial for counting, neutralized with 50 μL of 1.3 mol/L HCl and mixed with 4 mL of scintillator. The radioactivity was measured using a liquid scintillation counter.
# The LPL activity increase (%) was calculated from the measured values of LPL activity in the control group and test groups according to the following formula: LPL activity increase (%)=(Test group average value)/(Control group average value)×100−100
# [1] = Therapeutical effect on olive oil-induced triglyceride hyperlipidemia models; assay type: in vivo; settings: once a day for one week, SD rats, 2 h after olive oil
compound,measurement,setting,value
COc1cc(-c2cn3ccccc3n2)ccc1OCc1ccc(Cl)cc1 [Example 10],Increase of skeletal muscle LPL activity compared to control (%),LPL; 30 mg/kg oral,22%
same,Increase of skeletal muscle LPL activity compared to control (%),LPL; 100 mg/kg oral,55%
same,Decrease in plasma triglyceride level (%),[1]; 10 mg/kg oral,48%
same,Decrease in plasma triglyceride level (%),[1]; 30 mg/kg oral,67%
same,Decrease in plasma triglyceride level (%),[1]; 100 mg/kg oral,74%
